According to PubChem BioAssay AID208 (DTP/NCI, 2004):
Several values for one entry are separate records, joined by “and”; a condition that tells them apart may be missing. Equal values may be shown once. Results filed as inconclusive are left out.

Test system: HT29 intrarenal xenograft, nude mice, tumor weight change
Assay: NCI In Vivo Anticancer Drug Screen. Data for tumor model HT29;CX-1 Human Adenocarcinoma (MER+) (intrarenal inoculation) in NU/NU BALB/C (nude) mice
Conditions: endpoint: mean tumor weight change, higher = larger tumour
Description: The antitumor activity of compounds was measured in mice bearing transplantable tumors. Survival or tumor size were measured and the results are expressed as the measurement made in the treated group (T) divided by the measurement made in the vehicle treated control group (C). The tumor model used in this assay is HT29;CX-1 Human Adenocarcinoma (MER+) (intrarenal inoculation) in NU/NU BALB/C (nude) mice

[1] = dose: 150.0 mg/kg/injection, schedule: Q04DX004 (sc), vehicle: saline
[2] = dose: 300.0 mg/kg/injection, schedule: Q04DX004 (sc), vehicle: saline
[3] = dose: 600.0 mg/kg/injection, schedule: Q04DX004 (sc), vehicle: saline
[4] = dose: 150.0 mg/kg/injection, schedule: Q04DX004 (sc), vehicle: saline with Tween-80
[5] = dose: 300.0 mg/kg/injection, schedule: Q04DX004 (sc), vehicle: saline with Tween-80
[6] = dose: 600.0 mg/kg/injection, schedule: Q04DX004 (sc), vehicle: saline with Tween-80
[7] = dose: 1200.0 mg/kg/injection, schedule: Q04DX004 (sc), vehicle: saline with Tween-80
[8] = dose: 100.0 mg/kg/injection, schedule: Q04DX004 (sc), vehicle: saline
[9] = dose: 150.0 mg/kg/injection, schedule: Q04DX004 (ip), vehicle: saline

Nc1nnc[se]1
T/C (dose: 200.0 mg/kg/injection, schedule: Q04DX004 (sc), vehicle: saline with Tween-80): 64 % of control | T/C (dose: 400.0 mg/kg/injection, schedule: Q04DX004 (sc), vehicle: saline with Tween-80): 31 % of control | T/C (dose: 800.0 mg/kg/injection, schedule: Q04DX004 (sc), vehicle: saline with Tween-80): 23 % of control

C/C=C/C=C/c1cc2cc3c(c(O)c2c(=O)[nH]1)C1(CC3)C(O)=c2c(=O)c3c(=O)cc(OC)c(=O)c=3c(=O)c2=C1O (configuration not stated)
T/C (dose: 6.0 mg/kg/injection, schedule: Q04DX004 (sc), vehicle: DMSO): 75 % of control | T/C (dose: 12.0 mg/kg/injection, schedule: Q04DX004 (sc), vehicle: DMSO): 77 % of control | T/C (dose: 24.0 mg/kg/injection, schedule: Q04DX004 (sc), vehicle: DMSO): 61 % of control | T/C (dose: 48.0 mg/kg/injection, schedule: Q04DX004 (sc), vehicle: DMSO): 58 % of control

COc1cc2c(ccc3c4cc(OC)c(OC)cc4c[n+](C)c23)cc1O
T/C (dose: 75.0 mg/kg/injection, schedule: Q04DX004 (sc), vehicle: saline): 49 % of control | T/C [1]: 42 % of control | T/C [2]: 51 % of control | T/C [3]: 75 % of control

C1CC[N-]CC1.[Cl][Pt+2][Cl].[NH-]C1CC1
T/C (dose: 25.0 mg/kg/injection, schedule: Q04DX004 (sc), vehicle: water): 99 % of control | T/C (dose: 50.0 mg/kg/injection, schedule: Q04DX004 (sc), vehicle: water): 46 % of control

CCCC(=O)O.CCCC(=O)O.CCCC(=O)O.CCCC(=O)O.[Rh].[Rh]
T/C (dose: 4.0 mg/kg/injection, schedule: Q04DX004 (sc), vehicle: suspension in saline): 99 % of control | T/C (dose: 8.0 mg/kg/injection, schedule: Q04DX004 (sc), vehicle: suspension in saline): 118 % of control

O=C(NC1CCCCC1)OCc1c(COC(=O)NC2CCCCC2)c(-c2ccc(Cl)c(Cl)c2)n2c1CCC2
T/C [4]: 67 % of control | T/C [5]: 60 % of control | T/C [6]: 54 % of control | T/C [7]: 65 % of control

Cn1cnc([N+](=O)[O-])c1S(=O)(=O)NCN1CCOCC1
T/C (dose: 100.0 mg/kg/injection, schedule: Q01DX010 (sc), vehicle: Klucel (hydroxypropylcellulose) (HPC)): 80 % of control

CC(=O)Oc1[nH]c(=O)c2cccc3c2c1CCC3
T/C [4]: 207 % of control | T/C [5]: 105 % of control

COc1cc(C)c2c(c1C=O)Oc1c(c(C)c(O)c3c1C(O)OC3=O)OC2=O (configuration not stated)
T/C (dose: 50.0 mg/kg/injection, schedule: Q01DX010 (sc), vehicle: saline): 42 % of control | T/C (dose: 100.0 mg/kg/injection, schedule: Q01DX010 (sc), vehicle: saline): 81 % of control | T/C (dose: 400.0 mg/kg/injection, schedule: Q01DX010 (sc), vehicle: saline): 38 % of control

Nc1ncnc2c1ccn2C1OC(CO)C(O)C1O (configuration not stated)
T/C (dose: 2.0 mg/kg/injection, schedule: Q01DX010 (sc), vehicle: Klucel (hydroxypropylcellulose) (HPC)): 96 % of control | T/C (dose: 4.0 mg/kg/injection, schedule: Q01DX010 (sc), vehicle: Klucel (hydroxypropylcellulose) (HPC)): 81 % of control

CC[C@@]1(O)C(=O)OCc2c1cc1n(c2=O)Cc2cc3ccccc3nc2-1
T/C (dose: 0.75 mg/kg/injection, schedule: Q04DX004 (sc), vehicle: saline with Tween-80): 75 % of control | T/C (dose: 3.0 mg/kg/injection, schedule: Q04DX004 (sc), vehicle: saline with Tween-80): 49 % of control | T/C (dose: 6.0 mg/kg/injection, schedule: Q04DX004 (sc), vehicle: saline with Tween-80): 48 % of control | T/C (dose: 32.0 mg/kg/injection, schedule: Q04DX004 (sc), vehicle: saline with Tween-80): 8 % of control

Nc1ccc(S(=O)(=O)Nc2cnc3c(Cl)cccc3n2)cc1
T/C (dose: 300.0 mg/kg/injection, schedule: Q04DX004 (ip), vehicle: DMSO): 85 % of control

COC1/C=C/C=C(/C)Cc2cc(O)c(Cl)c(c2)N(C)C(=O)CC(OC(=O)C(C)C)C2(C)OC2C(C)C2CC1(O)NC(=O)O2 (configuration not stated)
T/C (dose: 2.0 mg/kg/injection, schedule: Q04DX004 (sc), vehicle: saline + alcohol): 82 % of control | T/C (dose: 4.0 mg/kg/injection, schedule: Q04DX004 (sc), vehicle: saline + alcohol): 98 % of control | T/C (dose: 8.0 mg/kg/injection, schedule: Q04DX004 (sc), vehicle: saline + alcohol): 72 % of control

Nc1ccc(Cn2ccc3c4c(N)nc(N)nc4ccc32)cc1
T/C (dose: 18.75 mg/kg/injection, schedule: Q04DX004 (sc), vehicle: saline with Tween-80): 60 % of control | T/C (dose: 37.5 mg/kg/injection, schedule: Q04DX004 (sc), vehicle: saline with Tween-80): 58 % of control

CC1(C)COCN1COCCOCN1COCC1(C)C
T/C (dose: 50.0 mg/kg/injection, schedule: Q04DX004 (sc), vehicle: saline): 66 % of control | T/C [8]: 122 % of control | T/C (dose: 200.0 mg/kg/injection, schedule: Q04DX004 (sc), vehicle: saline): 58 % of control | T/C (dose: 400.0 mg/kg/injection, schedule: Q04DX004 (sc), vehicle: saline): 122 % of control

O=C1c2ccccc2C(=O)c2c(NCCNCCO)ccc(O)c21
T/C (dose: 12.5 mg/kg/injection, schedule: Q04DX004 (sc), vehicle: saline): 104 % of control | T/C (dose: 25.0 mg/kg/injection, schedule: Q04DX004 (sc), vehicle: saline): 105 % of control | T/C [8]: 74 % of control

CN(C)c1ccc2c(NCCCCCCNc3ccnc4cc(N(C)C)ccc34)ccnc2c1
T/C (dose: 37.5 mg/kg/injection, schedule: Q04DX004 (sc), vehicle: distilled water + Tween-80 + alcohol): 92 % of control | T/C (dose: 75.0 mg/kg/injection, schedule: Q04DX004 (sc), vehicle: distilled water + Tween-80 + alcohol): 60 % of control | T/C (dose: 150.0 mg/kg/injection, schedule: Q04DX004 (sc), vehicle: distilled water + Tween-80 + alcohol): 54 % of control

CN(C)CCC(=O)C(=Cc1ccc(O)cc1)C(=O)CCN(C)C
T/C (dose: 75.0 mg/kg/injection, schedule: Q04DX004 (ip), vehicle: saline): 66 % of control | T/C [9]: 100 % of control

COC1(OC)C2C=CC1CC2
T/C [4]: 114 % of control | T/C [5]: 72 % of control | T/C [6]: 123 % of control | T/C [7]: 197 % of control

CC1(C)OCC2OC=CC(=O)C2O1 (configuration not stated)
T/C [4]: 111 % of control and 89 % of control | T/C [6]: 82 % of control and 92 % of control

c1ccc2c(NCCCCCCNc3c4ccccc4nc4ccccc34)c3ccccc3nc2c1
T/C (dose: 5.0 mg/kg/injection, schedule: Q01DX010 (sc), vehicle: Klucel (hydroxypropylcellulose) (HPC)): 154 % of control | T/C (dose: 10.0 mg/kg/injection, schedule: Q01DX010 (sc), vehicle: Klucel (hydroxypropylcellulose) (HPC)): 88 % of control

C[n+]1ccc2cc(N)c3c4ccccc4sc3c2c1
T/C (dose: 12.5 mg/kg/injection, schedule: Q04DX004 (sc), vehicle: saline with Tween-80): 60 % of control | T/C (dose: 25.0 mg/kg/injection, schedule: Q04DX004 (sc), vehicle: saline with Tween-80): 43 % of control

CCOC(=O)C(N)CSC(=O)NC (configuration not stated)
T/C [9]: 108 % of control | T/C [1]: 58 % of control | T/C (dose: 300.0 mg/kg/injection, schedule: Q04DX004 (ip), vehicle: saline): 103 % of control | T/C [2]: 75 % of control | T/C (dose: 600.0 mg/kg/injection, schedule: Q04DX004 (ip), vehicle: saline): 111 % of control | T/C [3]: 59 % of control

COc1cc([C@@H]2c3cc4c(cc3[C@@H](OC3OC5CO[C@@H](c6cccs6)OC5C(O)C3O)[C@H]3COC(=O)[C@H]23)OCO4)cc(OC)c1O (some centres not stated)
T/C (dose: 8.0 mg/kg/injection, schedule: Q01DX010 (sc), vehicle: saline): 225 % of control | T/C (dose: 16.0 mg/kg/injection, schedule: Q01DX010 (sc), vehicle: saline): 221 % of control | T/C (dose: 32.0 mg/kg/injection, schedule: Q01DX010 (sc), vehicle: saline): 189 % of control | T/C (dose: 33.0 mg/kg/injection, schedule: Q01DX010 (sc), vehicle: saline): 191 % of control | T/C (dose: 66.0 mg/kg/injection, schedule: Q01DX010 (sc), vehicle: saline): 60 % of control | T/C (dose: 132.0 mg/kg/injection, schedule: Q01DX010 (sc), vehicle: saline): 151 % of control | T/C (dose: 264.0 mg/kg/injection, schedule: Q01DX010 (sc), vehicle: saline): 38 % of control

NC(CNC(=O)CBr)C(=O)O (configuration not stated)
T/C (dose: 37.5 mg/kg/injection, schedule: Q04DX004 (sc), vehicle: water): 106 % of control | T/C (dose: 75.0 mg/kg/injection, schedule: Q04DX004 (sc), vehicle: water): 96 % of control | T/C (dose: 150.0 mg/kg/injection, schedule: Q04DX004 (sc), vehicle: water): 43 % of control

CC[C@@]1(O)C[C@H](OC2CC(N(C)C)C(OC3CC(O)C(OC4CCC(=O)C(C)O4)C(C)O3)C(C)O2)c2c(cc3c(c2O)C(=O)c2c(O)cccc2C3=O)[C@H]1C(=O)OC (some centres not stated)
T/C (dose: 1.0 mg/kg/injection, schedule: Q01DX010 (ip), vehicle: water): 58 % of control | T/C (dose: 2.0 mg/kg/injection, schedule: Q01DX010 (ip), vehicle: water): 37 % of control
